Experiment: Double-blind pharmacokinetic study of a single 1200 mg IV dose of oritavancin in healthy volunteers
Format: in vivo
Conditions: human, plasma, healthy subjects, average
Experimental: A randomized, double-blind, single center cohort study of a new formulation of a single 1200 mg IV dose of oritavancin in healthy volunteers, adjusting infusion time, concentration and reconstitution/administration solutions, of a single 1200 mg intravenous (IV) infusion of oritavancin in healthy adult subjects, was performed. Cohort 1 was administered the current, approved formulation of oritavancin which uses Sterile Water For Injection (SWFI) as the reconstituting agent and D5W for further dilution for a volume of 1000 mL. This infusion was given per the approved label over three hours. Cohort 2 was administered a new formulation for which hydroxypropyl-β-cyclodextrin (HPBCD) was included in the reconstitution diluent and D5W is used for further dilution for a total volume of 250 mL. This formulation was administered over two hours. Cohorts 3, 4, and 5 were administered the same new formulation as Cohort 2 (HPBCD and 250 mL of D5W); however, the infusion was administered over 90, 60, 30 minutes respectively. Two subjects in each of Cohorts 2, 3, 4, and 5 received a placebo infusion of D5W to use as a comparison when reviewing adverse event data. Healthy volunteer subjects providing informed consent and meeting all study eligibility criteria were randomized in the study and received one 1200 mg dose of IV oritavancin or placebo (cohorts 2-5 only).
COHORT 1: At the time of use, each vial was reconstituted by adding 40 mL of Sterile Water or for Injection, (“SWFI,” United States Pharmacopeia) to each 400 mg vial of oritavancin. Vials reconstituted in this manner gave a 10 mg/mL solution. After reconstitution, the compositions were combined and further diluted in 5% dextrose in water (D5W) to provide a total volume of approximately 1000 mL. At each dosing, 1200 mg of oritavancin in 1000 mL total of diluent was administered at a constant rate IV infusion over 3 hours via a single dedicated peripheral IV line (n=6).
(§1) COHORT 2: At the time of use, each vial was reconstituted by adding 4 mL of SWFI and 4 mL of 20% (w/v) HPBCD solution, to each 400 mg vial of oritavancin. Vials reconstituted in this manner provided a 50 mg/mL oritavancin solution. After reconstitution, the compositions were combined and further diluted in 5% dextrose in water (D5W) to provide a total volume of approximately 250 mL. At each dosing, 1200 mg of oritavancin in 250 mL of diluent was administered as a constant rate IV infusion over 2 hours via a single dedicated peripheral IV line (n=8) or a 2 hour placebo IV infusion of 250 mL of D5W (n=2).
as §1, with “3:” for “2:”, “90 minutes” for “2 hours”, “90 minute” for “2 hour”, “placebo” for “placebo IV”
as §1, with “4:” for “2:”, “60 minutes” for “2 hours”, “60 minute” for “2 hour”, “placebo” for “placebo IV”
COHORT 5: At the time of use, each vial was reconstituted by adding 4 mL of SWFI and 4 mL of 20% (w/v) HPBCD solution, to each 400 mg vial of oritavancin. […]

[1] = Cohort 1: 1200 mg IV, approved formulation (SWFI, no HPBCD), D5W 1000 mL, 3 h infusion
[2] = Cohort 2: 1200 mg IV, HPBCD formulation, D5W 250 mL, 2 h infusion
[3] = Cohort 3: 1200 mg IV, HPBCD formulation, D5W 250 mL, 1.5 h infusion
[4] = Cohort 4: 1200 mg IV, HPBCD formulation, D5W 250 mL, 1 h infusion
[5] = Cohort 5: 1200 mg IV, HPBCD formulation, D5W 250 mL, 0.5 h infusion
[6] = Cohort 6: 1200 mg IV, HPBCD formulation, NS 250 mL, 1 h infusion

Work on CN[C@H](CC(C)C)C(=O)N[C@H]1C(=O)N[C@@H](CC(N)=O)C(=O)N[C@H]2C(=O)N[C@H]3C(=O)N[C@H](C(=O)N[C@H](C(=O)O)c4cc(O)cc(O)c4-c4cc3ccc4O)[C@H](O[C@H]3C[C@](C)(N)[C@@H](O)[C@H](C)O3)c3ccc(c(Cl)c3)Oc3cc2cc(c3O[C@@H]2O[C@H](CO)[C@@H](O)[C@H](O)[C@H]2O[C@H]2C[C@](C)(NCc3ccc(-c4ccc(Cl)cc4)cc3)[C@@H](O)[C@H](C)O2)Oc2ccc(cc2Cl)[C@H]1O [Oritavancin] yielded an AUC(0-inf) [1] of 3680 µg·h/mL, a Cmax [1] of 183 µg/mL and an AUC(0-inf) [2] of 2710 µg·h/mL. It also gave a Cmax [2] of 153 µg/mL, an AUC(0-inf) [3] of 2850 µg·h/mL and a Cmax [3] of 177 µg/mL. For the same compound, the AUC(0-inf) [4] was 2870 µg·h/mL, the Cmax [4] was 202 µg/mL and the AUC(0-inf) [5] was 3180 µg·h/mL. For the same compound, the Cmax [5] was 199 µg/mL, the AUC(0-inf) [6] was 2960 µg·h/mL and the Cmax [6] was 206 µg/mL.

From patent US20170239323A1, “ORITAVANCIN FORMULATIONS” (The Medicines Company, priority 2016, published 2017)
